Source: paper PMC3556473, “Absorption, metabolism and excretion of [^14C]pomalidomide in humans following oral administration” (Cancer Chemotherapy and Pharmacology, 2012)
Values joined by “and” are separate entries in the source; they are usually repeats but may differ in a detail not shown here. Equal entries are not always repeated.

Assays:
[1] = Plasma pharmacokinetics of pomalidomide and its enantiomers (chiral LC–MS/MS) after a single oral 2 mg dose of [14C]pomalidomide; type: in vivo, human; settings: for C max: healthy male subjects; for C max / AUC0−t / AUC0−∞ / t ½: mean ± SD (n = 8); for T max: median (min–max)
Excerpt: This was an open-label, in-patient, single-dose study in eight non-smoking healthy male adult volunteers conducted in accordance with Good Clinical Practices (GCP) and in compliance with the Declaration of Helsinki. The protocol and consent form were reviewed and approved by the appropriate institutional review board, and all study participants gave written informed consent, before initiation of any study-related procedure. Male subjects were eligible based on standard inclusion/exclusion criteria and were excluded if they had exposure to excess radiation or participated in a study involving radioisotopes within the previous 12 months. Subjects entered the study center on the day prior to dosing and remained at the center for up to 15 days following dosing or until the total radioactivity recovered in excreta was ≥90 % or the radioactivity recovered in excreta per day on three consecutive days was ≤1 % of the administered radioactive dose.
Each subject was administered a single oral suspension of 2 mg (100 μCi) of [^14C]pomalidomide in seltzer water (75 mL) followed by administration of an additional 140 mL of distilled water. Subjects were fasted for 8 h prior to and 4 h following dose administration. The residual radioactivity in the dosing vials was determined, and for six of the eight subjects (subjects 1–4, 6 and 8), the administered dose (1.93–2.02 mg) was close to the target dose of 2 mg. For subjects 5 and 7, a significant amount of radioactivity remained in the dose vial, resulting in administered doses of 1.59 and 1.51 mg, respectively. Calculations for percent of dose recovered in excreta were based on the actual administered doses.
Blood was collected into pre-chilled K3EDTA tubes at pre-dose, 0.5, 1, 1.5, 2, 2.5, 3, 4, 6, 8, 10, 12, 24, 48, 72, 120 and 168 h following dose administration. Blood for radioactivity counting was transferred to a clean tube and stored at or below 4 °C until analyzed. Plasma was harvested by centrifugation from the remaining blood. A plasma sample for radioactivity counting was transferred to a fresh tube. Three plasma aliquots were transferred to tubes containing citric acid for metabolite profiling and for determination of pomalidomide enantiomer concentrations in plasma. Urine was collected pre-dose, 0–6, 6-12, 12–24 and every 24 h thereafter up to 216 h (9 days) following dose administration and were stabilized with one volume of pH 1.5 Sorensen’s citrate buffer (25 mM sodium citrate buffer adjusted to pH 1.5). During the 12- to 24-h collection interval for subject 4, approximately 550 mL of urine was inadvertently poured into the wrong collection urinal and the sample was lost. […] Individual fecal samples were collected pre-dose and for up to 9 days following dose administration, and homogenized using approximately three volumes by weight of pH 1.5 Sorensen’s citrate buffer. All urine, fecal homogenates and plasma samples were stored at or below −20 °C until analyzed.
Plasma concentrations of each pomalidomide enantiomer were determined using a chiral LC–MS/MS assay. The pomalidomide enantiomers and ^13C-labeled pomalidomide (internal standard; IS) were extracted from plasma (stabilized with citric acid) using liquid–liquid extraction with methyl tertiary butyl ether. After transfer to a new tube, the solvent was evaporated, and the samples were reconstituted and injected for LC–MS/MS analysis using a Chiral AGP (50 × 3.0 mm, 5 μm; Chrom Tech, Inc., Apple Valley, MN) analytical column. Positive ions were measured in the multiple reaction monitoring (MRM) mode using a Sciex API-4000 tandem mass spectrometer equipped with a Turbo Ion Spray source. For the QC samples, the accuracy ranged from 91.0 to 106.9 %. For study samples, the amount of [^14C]-labeled material was accounted for when calculating the concentration of enantiomers in plasma using an appropriate correction factor. […]

[2] = Metabolite profiling of urine and feces (% of dose excreted); type: in vivo, human; set-up: key to % of dose excreted, Feces / % of dose excreted, Urine: ND: not detected; D: detected by MS, but at concentrations too low to accurately quantify by radiochromatography; settings: radiochromatography; for % of dose excreted, Urine: pooled urine 0–72 h
Method: For each subject, urine samples were pooled using an equal percentage by volume of the 0–6, 6–12, 12–24, 24–48 and 48–72 h samples. Pools of the 0–6, 6–12, 12–24, 24–48 and 48-72 h collections were also prepared across subjects and analyzed for metabolite profiling. Samples were mixed and centrifuged prior to the supernatants being transferred to fresh tubes for metabolite profiling analysis.
For each subject, fecal homogenates for metabolite profiling were pooled using an equal percentage by weight of the 0–24, 24–48, 48–72 and 72–96 h samples. Pools of the 0–24, 24-48, 48–72 and 72–96 h collections were also prepared across subjects and analyzed for metabolite profiling. An aliquot of each pool was extracted with acetonitrile; samples were mixed and centrifuged. The supernatant was removed and the pellets re-suspended with 0.1 % formic acid and extracted with acetonitrile. The combined supernatants were evaporated to dryness under a stream of nitrogen and the residue re-suspended in methanol:0.1 % formic acid in water (1:1). Samples were assayed for extraction recovery prior to metabolite profiling. A control fecal homogenate spiked with [^14C]pomalidomide was extracted in a similar manner to determine the extraction efficiency and stability of [^14C]pomalidomide.
(§1) HPLC analysis for metabolite profiling (HPLC Method 1) was performed using a Waters 2695 Alliance Separation Module (Waters Corp., Milford, MA) with the autosampler set to 4 °C. [^14C]Pomalidomide and metabolites were separated using an ACE C18 column (150 × 4.6 mm, 3 μm; Advanced Chromatography Technologies, Aberdeen, Scotland) equipped with an ACE C18 guard column (10 × 3 mm, 3 μm). The mobile phases used were 25 mM ammonium acetate in water: pH 5.5 with formic acid (mobile phase A) and methanol (mobile phase B). The column temperature was 30 °C, and the flow rate was 0.7 mL/min. The linear gradient was delivered as follows: 0–2 min 100 % A; 2–38 min to 64 % A; 38–44 min to 0 % A; 44–48 min hold at 0 % A; return to initial conditions over 2 min.
(§2) Radioactivity profiles for plasma and excreta were determined by collecting the column eluate into 96-well Deepwell LumaPlates™ at a rate of 0.25 min/fraction. The plates were dried and the radioactivity in each well determined using a PerkinElmer TopCount® NXT™ Microplate Scintillation Counter. HPLC radiochromatograms were reconstructed using LC-ARC data handling software.

[3] = Plasma pharmacokinetics of pomalidomide and circulating metabolites by radiochromatography (metabolite profiling); type: in vivo, human; set-up: key to Plasma (% AUC relative to TRA): ND: not detected; D: detected by MS, but at concentrations too low to accurately quantify by radiochromatography; AUC0–24 / AUC0−∞: concentration or dose not given beside the values; settings: for Plasma (% AUC relative to TRA): AUC0–24 (unchanged drug or metabolite)/AUC0–24 (TRA) * 100 %
Method: Individual plasma samples collected from all subjects at 1, 2.5, 4, 6, 10, 12 and 24 h post-dose were analyzed for metabolite profiling. Samples were extracted with acetonitrile, the supernatant was removed, and the pellet was washed with 0.1 % formic acid in water and extracted again with acetonitrile. The combined supernatants were adjusted to 15 or 25 mL by adding acetonitrile then evaporated to dryness under a stream of nitrogen. The residues were re-suspended in 0.1 % formic acid in water, assayed for extraction recovery and analyzed for metabolite profiling. A control plasma sample spiked with [^14C]pomalidomide was extracted in a similar manner to determine the extraction efficiency and stability of [^14C]pomalidomide.
as §1, §2
For pomalidomide and metabolite concentrations in plasma based on metabolite profiling data, pharmacokinetic data were generated by non-compartmental analysis of plasma versus time profiles using WinNonlin (version 4.1, Enterprise Edition).

[4] = system: U266 MM cell; assay: Inhibition of MM cell proliferation ([3H]-thymidine incorporation, 3-day culture); type: cell-based; settings: Homo sapiens, U-266
Method: (§3) Metabolites and hydrolysis products of pomalidomide were tested for pharmacological activity in the following three assay systems: (1) inhibition of MM cell proliferation, (2) enhancement of primary human T cell IL-2 production and (3) inhibition of TNF-α production by lipopolysaccharide (LPS)-stimulated human peripheral blood mononuclear cells (PBMC). For all three assay types, compounds were dissolved in 100 % dimethyl sulfoxide (DMSO) and diluted into complete cell culture medium, consisting of Roswell Park Memorial Institute (RPMI)-1640 plus penicillin, streptomycin and L-glutamine (Mediatech, Manassas, VA). The MM cell proliferation cell culture medium contained 10 % fetal bovine serum, while the primary human cell cultures contained 10 % human AB serum (Invitrogen, Brown Deer, WI). The final DMSO concentration in the cell culture media was 0.25 %.
(§4) The human MM cell line OPM-2 was obtained from DSMZ (Braunschweig, Germany), and human MM cell lines U266 B1 and NCI-H929 were obtained from ATCC (Manassas, VA). Inhibition of MM cell proliferation was assessed by the [^3H]-thymidine incorporation assay in a 3-day culture in the presence of compounds in complete medium, as previously described. Primary human T cells were isolated from PBMC by negative selection using the RosetteSep T Cell Enrichment Cocktail (STEMCELL Technologies, Tukwila, WA) according to the manufacturer’s procedures. Costimulation of T cell IL-2 production was measured in a 2-day culture of primary human T cells isolated from healthy donors stimulated with anti-CD3 antibody in the presence of compounds, as previously described. Inhibition of TNF-α production by LPS-stimulated human PBMC was measured in a 1-day culture in the presence of compound, as previously described.

[5] = system: H929 MM cell; assay: as above; type: cell-based; settings: Homo sapiens, NCI-H929
Method: as §3, §4

[6] = system: OPM-2 MM cell; assay: as above; type: cell-based; settings: Homo sapiens
Method: as §3, §4

[7] = system: T cell IL-2 production; assay: Enhancement of primary human T cell IL-2 production (anti-CD3 stimulated, 2-day culture); type: cell-based; settings: 48 h, anti-CD3 stimulated primary human T cells
Method: as §3, §4

[8] = system: PBMC TNF-α production; assay: Inhibition of TNF-α production by LPS-stimulated human PBMC (1-day culture); type: cell-based; settings: 24 h
Method: as §3, §4

[9] = plasma, radiochromatography, geometric mean (%CV)

| C max [1] [ng/mL] | AUC0−t [1] [ng·h/mL] | AUC0−∞ [1] [ng·h/mL] | t ½ [1] [h] | T max [1] | % of dose excreted, Urine [2] | Plasma (% AUC relative to TRA) [3] | IC50 [4] [nM] | IC50 [5] [nM] | EC50 [7] [nM] | SMILES | IC50 [6] [nM] | IC50 [8] [nM] | further results |
| --- | --- | --- | --- | --- | --- | --- | --- | --- | --- | --- | --- | --- | --- |
| 6.36 ± 2.08 | 67.7 ± 33.8 | 95.1 ± 46.1 | 9.5 ± 3.2 | 3.0 (2.5–6.0) h | – | – | – | – | – | Nc1cccc2c1C(=O)N([C@@H]1CCC(=O)NC1=O)C2=O (single isomer, unassigned) [R-enantiomer] | – | – | – |
| – | – | – | – | – | 12% and 12.4% | 2.0% | – | – | – | Nc1c(O[C@@H]2O[C@H](C(=O)O)[C@@H](O)[C@H](O)[C@H]2O)ccc2c1C(=O)N(C1CCC(=O)NC1=O)C2=O (some centres unmarked) [Metabolite M13] | – | – | AUC/AUCTRA ([3]; plasma exposure relative to total radioactivity): 1.99%; AUC0–24 [3, 9]: 3.86 (54.0) ngEq*h/mL; AUC0−∞ [3, 9]: 5.99 (48.9) ngEq*h/mL; C max [3, 9]: 0.362 (31.7) ngEq/mL; t ½ [3, 9]: 9.97 (43.6) h; T max ([3]; plasma, radiochromatography, median and range): 3.25 (1.0–6.0) h |
| 6.78 ± 1.99 | 66.9 ± 34.1 | 96.4 ± 58.2 | 8.8 ± 4.5 | 3.0 (1.0–6.0) h | – | – | – | – | – | Nc1cccc2c1C(=O)N([C@H]1CCC(=O)NC1=O)C2=O (single isomer, unassigned) [S-enantiomer] | – | – | – |
| – | – | – | – | – | 1.5% | – | > 1000 | > 1000 | 720 | NC(=O)C(CCC(=O)O)N1C(=O)c2cccc(N)c2C1=O (centres unmarked) [Metabolite M10] | > 1000 | > 10000 | % of dose excreted, Feces ([2]; pooled feces 0–96 h): 0.3% |
| – | – | – | – | – | D | D | > 1000 | > 1000 | 1500 | Nc1cccc2c1C(=O)N(C1CC(O)C(=O)NC1=O)C2=O (centres unmarked) [Metabolite M19] | > 1000 | 2300 | – |
